Experimental findings from patent publication US20260071179A1, “PRODUCTION METHOD OF NERVE CELLS DAMAGED BY OXIDATIVE STRESS AND APPLICATIONS THEREOF” (FUJIFILM Corporation, priority 2023, published 2026) are described below.

The subject of the first assay is iCell motor neurons. Briefly: Evaluation of necroptosis inhibitor for oxidative stress-induced neuronal damage (neurite length, IncuCyte S3 Neurotrack). Conditions: iCell motor neurons in −AO culture medium (Stress(+)), 4.7×10^4 cells/cm^2, compound 0.01 to 20 μM, FIG. 14. Format: cell-based, human. As for the experimental part: (§1) A solution obtained by diluting iMatrix-511 silk (Matrixome, 892021) 16.7 times with PBS was added to a 96-well plate (Corning, 356461) coated with PDL at 70 μL/well, and incubated at 37° C. for 3 hours to 72 hours.
(§2) As a culture medium containing an antioxidant, a culture medium (Stress(−)) in which DMSO was added to a +AO culture medium to a final concentration of 0.1% by volume (v/v) was used, as a culture medium not containing an antioxidant, a culture medium (Stress(+)) in which DMSO was added to a −AO culture medium to a final concentration of 0.1% by volume (v/v), and as the culture medium of the drug evaluation group, a culture medium in which a DMSO-dissolved compound was added to the −AO culture medium to a concentration of 0.1% by volume (v/v) (0.01 to 20 μM) was used.
Frozen cells (iCell motor neurons, FCDI, C1048) were thawed in a warm bath at 37° C. After melting, the cells were added to a culture medium and centrifuged at 600×g at room temperature for 5 minutes. After centrifugation, the supernatant was removed, the cells were suspended in 1 mL of the culture medium, and the number of cells was counted. Thereafter, the cells were diluted with a culture medium, seeded at 200 μL/well (4.7×10^4 cells/cm^2), and cultured under the conditions of 37° C. and 5% CO2. […]
(§3) The neurite length was quantified using the Neurotrack software (Sartorius, 9600-0010) of IncuCyte S3.
Take `CN1C(=O)C(Cc2c[nH]c3ccccc23)NC1=S` (stereo not shown) [Necrostatin-1]: the “reduction in the sum of the neurite lengths” value is recorded as “suppressed in a concentration-dependent manner”.

A further assay deals with iCell motor neurons. Briefly: Compound screening using oxidative stress-induced neuronal damage evaluation system (AUC of neurite length over 14 days). In kind it is cell-based, human. Conditions: iCell motor neurons in −AO culture medium (Stress(+)), 4.7×10^4 cells/cm^2, StemSelect Library compounds, FIG. 18. The procedure: as §1
as §2, with “As the compound library, StemSelect Library compounds (Merck, 569774) were used. As” for “As”, “(v/v)” for “(v/v) (0.01 to 20 μM)”
Frozen cells (iCell motor neurons, FCDI, C1048) were thawed in a warm bath at 37° C. After melting, the cells were added to a culture medium and centrifuged at 600×g at room temperature for 5 minutes. After centrifugation, the supernatant was removed, the cells were suspended in 1 mL of the culture medium, and the number of cells was counted. Thereafter, the cells were diluted with a culture medium, seeded at 200 μL/well (4.7×10^4 cells/cm^2), and cultured under the conditions of 37° C. and 5% CO2. After culturing, images were acquired by imaging with IncuCyte S3 (Sartorius, Incucyte S3) every 6 hours.
The neurite length was quantified using the Neurotrack software (Sartorius, 9600-0010) of IncuCyte S3. The area under the curve (AUC) of the curve of the neurite length over time for 14 days was calculated, and the effects of the drug were compared. […] The AUC of the nerve cells (Stress(+) group) (▴) cultured in the culture medium not containing an antioxidant was reduced as compared with the nerve cells (Stress(−) group) (▪) cultured in the culture medium containing an antioxidant.
For the compound `CC#C[C@]1(O)CC[C@H]2[C@@H]3CCC4=CC(=O)CCC4=C3[C@@H](c3ccc(N(C)C)cc3)C[C@@]21C` [Mifepristone], the “reduction in AUC of the curve of the neurite length over time for 14 days” value (shortened to “reduction in AUC”) is listed as “strongly suppressed”.
For `Clc1ccccc1CNCC1CCC(CNCc2ccccc2Cl)CC1` (stereo not shown) [AY 9944], the “reduction in AUC” value is “strongly suppressed”.
The same measure, in the same setting: as for `N=C(N)SCCc1ccc(OCc2ccc([N+](=O)[O-])cc2)cc1` [KB-R7943], the entry is “strongly suppressed”; as for `CCCC(=O)OCc1ccc(OC(=O)/C=C(C)/C=C/C=C(C)/C=C/C2=C(C)CCCC2(C)C)cc1` [ATRA-BA Hybrid], “strongly suppressed”.
Turning to `CC[C@H](C)C(=O)O[C@H]1CCC=C2C=C[C@H](C)[C@H](CC[C@@H]3C[C@@H](O)CC(=O)O3)[C@H]21` [Mevastatin], the “reduction in AUC” value is recorded as “strongly suppressed”.
As for `c1nc2nc(Nc3ccc(N4CCOCC4)cc3)nc(NC3CCCCC3)c2[nH]1` [Reversine], the “reduction in AUC” value was “strongly suppressed”.
The same measure, in the same setting: under `C[C@H](NC(=O)Cc1cc(F)cc(F)c1)C(=O)N[C@H]1N=C(c2ccccc2)c2ccccc2N(C)C1=O` [γ-Secretase Inhibitor XXI] stands “strongly suppressed”.
On the same count and under the same terms, as for `O=C(O)c1ccc2cc(-c3ccc(O)c(C45CC6CC(CC(C6)C4)C5)c3)ccc2c1` [CD437/AHPN], the entry is “strongly suppressed”.
The same measure, in the same setting: under `O=C(Nc1cccc(NC(=O)c2cccc(O)c2O)c1)c1cccc(O)c1O` [Telomerase Inhibitor IX] stands “strongly suppressed”; under `c1ccc2c(Oc3nc(Nc4ccc(N5CCOCC5)cc4)c4ncn(C5CCCCC5)c4n3)cccc2c1` [Purmorphamine], “strongly suppressed”.
As for `C=CC(C)(C)c1cc(/C=C/C(=O)c2ccc(O)cc2)c(OC)cc1O` [Licochalcone-A], the “reduction in AUC” value was “strongly suppressed”.

The subject of a further assay is nerve cells (considered to be cortical excitatory neurons) produced by forcibly expressing the Ngn2 genes from the iPS cells. Briefly: Evaluation of compound for oxidative stress-induced neuronal damage (neurite length, IncuCyte S3 Neurotrack). Conditions: same method as in Test Example 7, −AO culture medium (Stress(+)), FIG. 19. Format: cell-based, human. As for the experimental part:
as §1
As a culture medium containing an antioxidant, a culture medium (Stress(−)) in which DMSO was added to a +AO culture medium to a final concentration of 0.1% by volume (v/v) was used, as a culture medium not containing an antioxidant, a culture medium (Stress(+)) in which DMSO was added to a −AO culture medium to a final concentration of 0.1% by volume (v/v), and as the culture medium of the drug evaluation group, a culture medium in which a DMSO-dissolved compound was added to the −AO culture medium to a concentration of 0.1% by volume (v/v) (0.004 to 20 μM) was used.
The nerve cells (considered to be cortical excitatory neurons) produced by forcibly expressing the Ngn2 genes from the iPS cells was thawed in a warm bath at 37° C. […] After centrifugation, the supernatant was removed, the cells were suspended in 1 mL of the culture medium, and the number of cells was counted. […]
as §3
The effect of edaravone, which was used as a therapeutic drug for ALS, on oxidative stress-induced neuronal damage was evaluated by the same method as in Test Example 7. […]
Take `CC1=NN(c2ccccc2)C(=O)C1` [edaravone]: the “reduction in the sum of the neurite lengths” value is “suppressed in a concentration-dependent manner”.
